Measurements: patent US8278453B2, “Quinolizidinone M1 receptor positive allosteric modulators” (Merck Sharp & Dohme Corp., priority 2008, dated 2012)

biological target: T1, acetylcholine muscarinic M1 receptor (Homo sapiens, UniProt P11229); assay: muscarinic M1 FLIPR intracellular calcium assay (positive allosteric modulation, EC20 acetylcholine); format: cell-based; conditions: inflection point from FLIPR values; CHOnfat/hM1 cells; 4 min preincubation, then EC20 acetylcholine (3 nM final); read-out: IP Value
T1 construct: expressed in transfected cells; host or cells: CHOnfat (CHO cells expressing NFAT), line CHOnfat/hM1
T1 sequence (P11229 1-460): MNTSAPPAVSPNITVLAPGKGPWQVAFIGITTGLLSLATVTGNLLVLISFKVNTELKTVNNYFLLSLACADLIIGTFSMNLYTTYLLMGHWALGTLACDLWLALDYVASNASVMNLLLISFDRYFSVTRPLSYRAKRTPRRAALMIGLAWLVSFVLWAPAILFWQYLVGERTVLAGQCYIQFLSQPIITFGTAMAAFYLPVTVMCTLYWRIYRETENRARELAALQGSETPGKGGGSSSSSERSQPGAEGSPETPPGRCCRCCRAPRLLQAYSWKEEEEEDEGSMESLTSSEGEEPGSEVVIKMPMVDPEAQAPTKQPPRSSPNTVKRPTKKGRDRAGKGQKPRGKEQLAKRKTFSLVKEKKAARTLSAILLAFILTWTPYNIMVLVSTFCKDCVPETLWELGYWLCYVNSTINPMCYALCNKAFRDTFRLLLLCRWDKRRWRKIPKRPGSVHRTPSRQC
Procedure: The assay studies the effect of one or several concentrations of test compounds on basal or acetylcholine-stimulated Ca^2+ levels using FLIPR.
Compounds are prepared and subjected to a preincubation period of 4 min. Thereafter, a single EC20 concentration of acetylcholine is added to each well (3 nM final). The intracellular Ca^2+ level of each sample is measured and compared to an acetylcholine control to determine any modulatory activity.
Cells: CHOnfat/hM1, hM2, hM3 or hM4 cells are plated 24 hr before the assay at a density of 18,000 cells/well (100 μL) in a 384 well plate. CHOnfat/hM1 and CHOnfat/hM3 Growth Medium: 90% DMEM (Hi Glucose); 10% HI FBS; 2 mM L-glutamine; 0.1 mM NEAA; Pen-Strep; and 1 mg/ml Geneticin, are added. For M2Gqi5CHOnfat and M4Gqi5CHOnfat cells, an additional 600 μg/ml hygromycin is added.
Equipment: 384 well plate, 120 μL addition plate; 96-well Whatman 2 ml Uniplate Incubator, 37° C., 5% CO2; Skatron EMBLA-384 Plate Washer; Multimek Pipetting System; Genesis Freedom 200 System; Mosquito System; Temo Nanolitre Pipetting System; and FLIPR^384 Fluorometric Imaging Plate Reader System are used.
Buffers. Assay Buffer: Hanks Balanced Salt Solution, with 20 mM Hepes, 2.5 mM Probenecid (Sigma P-8761) first dissolved in 1N aqueous NaOH, 1% Bovine Serum Albumin (Sigma A-9647). Dye Loading Buffer: Assay Buffer plus 1% Fetal Bovine Serum and Fluo-4AM/Pluronic Acid Mixture. 2 mM Fluo-4AM ester stock in DMSO (Molecular Probes F-14202) Concentration of 2 μM in buffer for a final concentration of 1 μM in Assay. 20% Pluronic Acid Solution stock, with a concentration of 0.04% in Buffer, 0.02% in Assay.
65 μl of 2 mM Fluo-4AM are mixed with 130 μL of 20% Pluronic Acid. The resulting solution and 650 μL FBS is added to the assay buffer for a total volume of 65 mL. Positive Controls: 4-Br-A23187: 10 mM in DMSO; final concentration 10 μM. […]
After 60 min, the cells are washed three times with 100 μL of buffer, leaving 30 μL of buffer in each well. […] A signal test to check background fluorescence and basal fluorescence signal is performed. […]

EC50 | SMILES
0.201 µM | O=C(O)c1cc(Cc2ccc(Cl)cc2)c2ccccn2c1=O [Example 3, 1-(4-Chlorobenzyl)-4-oxo-4H-quinolizine-3-carboxylic acid]
0.213 µM | Cn1cc(-c2ccc(Cc3cc(C(=O)O)c(=O)n4ccccc34)nc2)cn1 [Example 5, 1-{[5-(1-Methyl-1H-pyrazol-4-yl)pyridin-2-yl]methyl}-4-oxo-4H-quinolizine-3-carboxylic acid]
0.11 µM | O=C(O)c1cc(Cc2ccc(-c3ccccc3)cc2)c2ccccn2c1=O [Example 4, 1-(Biphenyl-4-ylmethyl)-4-oxo-4H-quinolizine-3-carboxylic acid]
